This note sets out measurements from publication PMC5613053 (Investigational New Drugs, 2017).

Assay [1] concerns the target T1, LTK (Homo sapiens, UniProt P29376).
T1 construct: purchased Carna Biosciences, Inc
In words: Kinase inhibitory assay (TK-ELISA / off-chip MSA). It is filed as biochemical.
Procedure: These assays were conducted according to the manufacturer’s instructions. […] TK-ELISA and MSA assays were used to conduct IC50 studies for FLT3, LTK, AXL, and c-KIT; the HTRF® KinEASE™-TK assay (Sceti Medical Labo, Tokyo, Japan) was performed according to the manufacturer’s protocol to assess the IC50 value of echinoderm microtubule-associated protein-like 4-ALK (EML4-ALK; three individual experiments for each kinase).

For assay [2], the target named is T2, ALK (Homo sapiens, UniProt Q9UM73).
T2 construct: purchased Carna Biosciences, Inc
In words: Tyrosine kinase panel (off-chip MSA). It is filed as biochemical. The settings on record: 1 nM; single experiment. The method, then:
(§1) Inhibitory assay for the panel of tyrosine kinases was conducted using off-chip MSA. Percentage inhibitions were determined in a single experiment

The target of assay [3] is T3, MER (Homo sapiens, UniProt Q12866).
T3 construct: purchased Carna Biosciences, Inc
In words: Tyrosine kinase panel (off-chip MSA). The settings on record: 5 nM; single experiment. It is filed as biochemical. Here is the method: as §1

In assay [4] the target is T4, RET (Homo sapiens, UniProt P07949).
T4 construct: purchased Carna Biosciences, Inc
The assay can be described thus: Tyrosine kinase panel (off-chip MSA). Format: biochemical. The settings on record: 5 nM; single experiment. Here is the method:
as §1

Assay [5] deals with T5, ROS (Homo sapiens, UniProt P08922).
T5 construct: purchased Carna Biosciences, Inc
The assay can be described thus: Tyrosine kinase panel (off-chip MSA). The settings on record: 5 nM; single experiment. It is filed as biochemical. The method, then: as §1

Assay [6] addresses T6, TRKA (Homo sapiens, UniProt P04629).
T6 construct: purchased Carna Biosciences, Inc
In words: Tyrosine kinase panel (off-chip MSA). It is filed as biochemical. The settings on record: 5 nM; single experiment. Here is the method:
as §1

Assay [7] deals with Ba/F3 cells expressing FLT3-ITD-D835Y. The assay can be described thus: cells. The settings on record: Mus musculus, BaF3, 48 h, read-out: Cell growth inhibition IC50. Here is the method:
(§2) A detailed protocol is provided in the online resource.
(§3) To examine the effect of ASP2215 on cell viability, MV4-11, MOLM-13, and Ba/F3 cells expressing either FLT3-ITD, FLT3-D835Y, FLT3-ITD-D835Y, FLT3-ITD-F691L or FLT3-ITD-F691I were seeded into 96-well white plates (Nunc F96 MicroWell™ Plates, white; Thermo Fisher Scientific Inc., Waltham, MA) at 1000 cells/well in Iscove’s Modified Dulbecco’s Medium, 500 cells/well in RPMI 1640 or 1000 cells/well in RPMI 1640, respectively. All cell lines were cultured overnight in a humidified incubator at 37°C with 5% CO2 in media supplemented with 10% heat-inactivated FBS.
(§4) After treatment, the CellTiter-Glo® Luminescent Cell Viability Assay (Promega) was used according to the manufacturer’s instructions and luminescence was measured using an ARVO-HTS plate reader (Perkin Elmer Inc., Waltham, MA). The assay was performed in either triplicate or quadruplicate. […] The geometric mean was calculated from three individual experiments.
(§5) The mutants of FLT3 (NM_004119), FLT3-D835Y (gat to tat), FLT3-ITD (insertion of […] at 1799 position of CDS), FLT3-ITD-F691I (ttt to att), FLT3-ITD-F691L (ttt to ctt), FLT3-ITD-D835Y were encoded into pMX-puro vector (Cell Biolabs, Inc., San Diego, CA), and transfected with FuGENE-HD (Promega) into Platinum-E cells. […]

The test system of assay [8] is Ba/F3 cells expressing FLT3-ITD. In words: cells. The settings on record: Mus musculus, BaF3, 48 h, read-out: Cell growth inhibition IC50. The method, then: as §2, §3, §4, §5
Assay [9] has as its system Ba/F3 cells expressing FLT3-ITD-F691 L. The assay can be described thus: CellTiter-Glo cell viability. Format: cell-based. The settings on record: Mus musculus, BaF3, 48 h; 2 days of treatment; read-out: Cell growth inhibition IC50. The method, then:
as §2, §3, §4, §5

The subject of assay [10] is Ba/F3 cells expressing FLT3-ITD-F691I. In words: CellTiter-Glo cell viability. Format: cell-based. The settings on record: Mus musculus, BaF3, 48 h; 2 days of treatment; read-out: Cell growth inhibition IC50. The method, then:
as §2, §3, §4, §5

Assay [11] deals with phospho-STAT5. In words: Immunoblot for phosphorylated STAT5 / STAT5 in MV4-11 xenograft tumors. Format: in vivo, mice. The settings on record: for Phospho-STAT5, % of baseline levels: 3 mg/kg. An excerpt:
Detailed protocols can be found in the online resource.
After 1 month, mice were divided into groups, with each group having approximately the same mean tumor volume.
MV4-11 xenograft tumor protein samples were electrophoresed on 7.5% gels, transferred to PVDF membranes, and probed for phosphorylated-STAT and total STAT5 as described earlier with one alteration. Following detection of phosphorylated STAT5, the membrane was stripped using Restore™ Western Blot Stripping Buffer (Thermo Fisher Scientific) and then re-probed for total STAT5. Phosphorylation levels were normalized to total STAT5 levels in each group (3 mice/group) relative to the mean value of the control group (4 mice/group). Data are reported as mean ± SEM.

The subject of assay [12] is Ba/F3 cells expressing FLT3-ITD. The assay can be described thus: Ba/F3 FLT3-ITD subcutaneous xenograft. Format: in vivo, mice. The settings on record: up to 7 days. The method, then:
(§6) Once tumor growth had been confirmed, mice xenografted with MV4–11 cells were monitored for 28 days; mice xenografted with Ba/F3 cells expressing FLT3 mutations were monitored for 7 days. Tumor diameter was measured using a caliper, and tumor volume was determined by calculating the volume of an ellipsoid using the formula: length × width^2 × 0.5. Body weight was measured using a standard balance. Data are expressed as mean ± SEM from n = 6 mice/group (MV4–11) and n = 5 mice/group (Ba/F3).
(§7) After tumor establishment, mice were divided into groups such that the mean tumor volume was approximately equal in each group.

The subject of assay [13] is Ba/F3 cells expressing FLT3-D835Y. The assay can be described thus: Ba/F3 FLT3-D835Y subcutaneous xenograft. It is filed as in vivo, mice. The settings on record: up to 7 days. The method, then:
as §6, §7

For assay [14], the system named is MV4–11-luc cells. In words: Intra-bone marrow transplantation (IBMT) model. It is filed as in vivo, mice. The method, then:
In the intra-bone marrow transplantation (IBMT) model, MV4–11-luc cells (1 × 10^6 cells/mouse) were injected into the bone marrow of the left tibia of female NOD-SCID mice (day 0) following the protocol detailed by Lee et al.. Tumor growth was monitored by bioluminescent imaging of the whole body with an IVIS Spectrum (PerkinElmer, Waltham, MA). […] Tumor growth was monitored once a week during the dosing period and then every other week until day 100. Survival was also monitored daily until day 168.

The structures appear in SMILES notation.

T1 sequence (P29376 17-864): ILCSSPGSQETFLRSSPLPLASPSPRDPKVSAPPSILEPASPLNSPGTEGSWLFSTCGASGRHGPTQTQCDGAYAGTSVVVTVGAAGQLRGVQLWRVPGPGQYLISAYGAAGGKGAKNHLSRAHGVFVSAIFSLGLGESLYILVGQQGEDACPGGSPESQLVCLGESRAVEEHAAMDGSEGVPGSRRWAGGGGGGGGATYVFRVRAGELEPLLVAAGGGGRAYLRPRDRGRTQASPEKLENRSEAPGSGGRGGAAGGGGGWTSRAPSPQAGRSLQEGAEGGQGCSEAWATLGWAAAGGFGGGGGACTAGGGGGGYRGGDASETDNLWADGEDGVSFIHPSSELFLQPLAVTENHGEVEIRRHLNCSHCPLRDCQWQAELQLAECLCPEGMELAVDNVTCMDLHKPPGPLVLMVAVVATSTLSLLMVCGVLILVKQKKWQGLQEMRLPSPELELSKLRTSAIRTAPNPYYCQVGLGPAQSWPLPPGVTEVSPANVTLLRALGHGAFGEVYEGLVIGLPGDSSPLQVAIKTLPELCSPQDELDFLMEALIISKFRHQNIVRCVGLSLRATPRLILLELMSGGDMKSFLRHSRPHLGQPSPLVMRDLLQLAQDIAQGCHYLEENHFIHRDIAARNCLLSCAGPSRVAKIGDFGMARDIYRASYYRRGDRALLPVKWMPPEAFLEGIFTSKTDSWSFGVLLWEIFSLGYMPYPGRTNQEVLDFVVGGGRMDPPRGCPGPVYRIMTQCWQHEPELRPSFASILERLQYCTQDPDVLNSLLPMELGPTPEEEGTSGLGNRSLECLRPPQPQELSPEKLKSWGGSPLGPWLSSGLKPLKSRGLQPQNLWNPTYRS
T6 sequence (P04629 33-796): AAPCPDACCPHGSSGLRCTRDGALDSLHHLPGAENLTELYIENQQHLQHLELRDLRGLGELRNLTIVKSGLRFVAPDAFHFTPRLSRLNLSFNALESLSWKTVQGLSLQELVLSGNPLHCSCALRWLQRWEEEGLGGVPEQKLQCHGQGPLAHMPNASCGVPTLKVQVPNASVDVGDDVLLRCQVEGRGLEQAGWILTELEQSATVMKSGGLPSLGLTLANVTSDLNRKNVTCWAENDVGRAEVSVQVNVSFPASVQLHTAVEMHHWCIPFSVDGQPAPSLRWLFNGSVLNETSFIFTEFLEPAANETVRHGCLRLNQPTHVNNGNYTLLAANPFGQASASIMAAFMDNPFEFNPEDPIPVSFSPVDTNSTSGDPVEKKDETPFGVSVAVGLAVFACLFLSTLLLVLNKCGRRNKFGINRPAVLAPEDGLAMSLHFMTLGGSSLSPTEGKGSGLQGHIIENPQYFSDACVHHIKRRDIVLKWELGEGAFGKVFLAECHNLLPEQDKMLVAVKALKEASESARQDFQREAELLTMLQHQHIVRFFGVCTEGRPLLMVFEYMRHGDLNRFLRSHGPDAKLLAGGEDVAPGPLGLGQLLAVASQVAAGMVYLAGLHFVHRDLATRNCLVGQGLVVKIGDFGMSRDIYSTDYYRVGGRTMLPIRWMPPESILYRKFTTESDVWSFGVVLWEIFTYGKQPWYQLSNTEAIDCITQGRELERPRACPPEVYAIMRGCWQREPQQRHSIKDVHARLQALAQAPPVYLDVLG
T3 sequence (Q12866 21-999): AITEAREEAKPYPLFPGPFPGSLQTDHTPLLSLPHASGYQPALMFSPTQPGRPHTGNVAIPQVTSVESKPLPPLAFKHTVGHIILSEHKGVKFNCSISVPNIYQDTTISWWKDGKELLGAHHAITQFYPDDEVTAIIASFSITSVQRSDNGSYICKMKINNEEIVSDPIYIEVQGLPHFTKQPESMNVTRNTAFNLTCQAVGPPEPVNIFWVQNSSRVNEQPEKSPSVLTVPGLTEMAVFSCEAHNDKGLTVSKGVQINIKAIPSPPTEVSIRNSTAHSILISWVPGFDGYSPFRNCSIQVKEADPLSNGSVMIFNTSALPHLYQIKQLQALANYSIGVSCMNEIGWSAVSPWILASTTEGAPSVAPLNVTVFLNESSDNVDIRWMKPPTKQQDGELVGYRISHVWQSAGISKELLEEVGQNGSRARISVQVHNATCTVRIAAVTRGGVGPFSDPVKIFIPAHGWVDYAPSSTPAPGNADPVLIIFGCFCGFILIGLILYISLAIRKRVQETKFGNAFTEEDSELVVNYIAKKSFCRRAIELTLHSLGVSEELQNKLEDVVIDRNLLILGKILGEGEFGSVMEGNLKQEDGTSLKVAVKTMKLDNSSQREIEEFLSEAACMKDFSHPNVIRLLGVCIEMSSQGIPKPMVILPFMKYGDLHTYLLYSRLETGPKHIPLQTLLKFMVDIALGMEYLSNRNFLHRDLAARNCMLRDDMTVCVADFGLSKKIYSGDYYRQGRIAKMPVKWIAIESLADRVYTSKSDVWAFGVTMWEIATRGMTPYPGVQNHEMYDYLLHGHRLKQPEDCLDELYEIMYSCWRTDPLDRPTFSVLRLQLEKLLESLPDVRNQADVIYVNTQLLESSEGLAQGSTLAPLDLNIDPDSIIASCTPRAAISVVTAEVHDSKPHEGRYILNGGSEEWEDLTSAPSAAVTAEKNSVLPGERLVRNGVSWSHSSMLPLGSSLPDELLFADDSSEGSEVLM
T4 sequence (P07949 29-1114): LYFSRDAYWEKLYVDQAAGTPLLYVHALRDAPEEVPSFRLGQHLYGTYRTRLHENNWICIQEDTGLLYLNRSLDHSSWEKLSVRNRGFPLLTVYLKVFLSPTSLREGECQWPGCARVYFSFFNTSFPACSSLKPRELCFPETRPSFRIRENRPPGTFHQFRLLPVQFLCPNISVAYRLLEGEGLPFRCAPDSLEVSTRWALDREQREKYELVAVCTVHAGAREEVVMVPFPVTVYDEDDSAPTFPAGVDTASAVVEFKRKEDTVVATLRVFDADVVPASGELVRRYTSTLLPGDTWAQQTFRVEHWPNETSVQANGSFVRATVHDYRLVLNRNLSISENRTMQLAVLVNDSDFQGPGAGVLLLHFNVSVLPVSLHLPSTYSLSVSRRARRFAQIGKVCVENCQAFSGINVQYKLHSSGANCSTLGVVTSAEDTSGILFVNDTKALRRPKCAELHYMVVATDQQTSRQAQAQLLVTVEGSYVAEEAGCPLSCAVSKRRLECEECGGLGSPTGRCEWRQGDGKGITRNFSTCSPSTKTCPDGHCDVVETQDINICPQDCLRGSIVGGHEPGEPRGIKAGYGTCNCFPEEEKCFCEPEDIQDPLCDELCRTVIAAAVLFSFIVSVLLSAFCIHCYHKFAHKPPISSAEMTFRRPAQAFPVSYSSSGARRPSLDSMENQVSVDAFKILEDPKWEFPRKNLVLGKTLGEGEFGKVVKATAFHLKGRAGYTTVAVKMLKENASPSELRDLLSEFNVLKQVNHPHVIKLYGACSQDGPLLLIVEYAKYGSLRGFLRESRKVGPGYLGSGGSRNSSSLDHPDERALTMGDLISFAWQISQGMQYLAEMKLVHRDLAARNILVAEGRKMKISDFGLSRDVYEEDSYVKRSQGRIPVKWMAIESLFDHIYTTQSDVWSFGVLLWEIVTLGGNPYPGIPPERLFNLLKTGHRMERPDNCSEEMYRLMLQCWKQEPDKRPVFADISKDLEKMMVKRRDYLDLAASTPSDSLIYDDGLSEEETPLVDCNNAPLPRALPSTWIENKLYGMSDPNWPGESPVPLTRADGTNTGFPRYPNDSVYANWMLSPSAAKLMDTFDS

On to `CCc1nc(C(N)=O)c(Nc2ccc(N3CCC(N4CCN(C)CC4)CC3)c(OC)c2)nc1NC1CCOCC1` [gilteritinib], for which the IC50 in [1] stood at 0.35 nM; in [7] it was 2.1 nM; in [8] it was 1.8 nM; in assay [9], 22 nM; in [10], 49 nM. Also, the inhibition at 0.001 µM in [1] (1 nM, single experiment) was more than 50%; in assay [2], more than 50%. Moreover, the inhibition at 0.005 µM in assay [3], in assay [4], in assay [5] and in assay [6] was more than 50% in each case. The “Phospho-STAT5, % of baseline levels” value in [11] (4 h and 8 h) is less than 20%; in [11] (24 h), “approximately 50%”. Besides, the “Phosphorylation level of STAT5 in tumors” value in [11] (4 h and 8 h after single dose of 6 mg/kg or 10 mg/kg) was “almost completely abolished”. Besides, the “STAT5 phosphorylation level, % of baseline” value in assay [11] (24 h post drug, 6 mg/kg or 10 mg/kg) is approximately 20%. Also, the “Antitumor effect (tumor volume)” value in [12] (10 mg/kg once-daily oral) was “showed antitumor efficacy”; in assay [12] (30 mg/kg once-daily oral), “induced tumor regression”; in assay [13] (10 mg/kg once-daily oral) it was “showed antitumor efficacy”; in assay [13] (30 mg/kg once-daily oral) it was “induced tumor regression”. For the same compound, the Survival entry in [14] (30 mg/kg once daily day 15–70, monitored until day 168, n = 10) is recorded as “all treated mice survived to day 168”. In addition, in [14] (30 mg/kg once daily, whole-body imaging), the “MV4–11 cell infiltration” value is reported as “no evidence of cell infiltration”.
